These results are taken from patent publication US8816089B2, “Methods for controlling SR protein phosphorylation, and antiviral agents whose active ingredients comprise agents that control SR protein activity” (priority 2003, dated 2014).

One series concerns SARS virus (FFM-1). Format: cell-based. Particulars: Vero cells, 40 μM, 48 hours.
The test system of the next series is Cytomegalovirus. The conditions noted are these: HFL1 cells, 20 or 40 μM, seven days after infection.
Series [1] relates to Chinese hamster CHL cells. As to the kind of experiment: Chromosomal screening test for mutagenicity in mammalian cells. Particulars: positive control, 500 μg/ml, short treatment, +S9 mix.
The next series relates to SRp75, SRp55, and SRp40. The experiment in a line: Degradation of HA-tagged SR proteins in Flp-In-293 cells, Western blot. Particulars: 10 μM, ten hours. In kind it is cell-based, human. The procedure: FIG. 1B: Degradation of SR protein. Plasmids for the SRp75, SRp55, and SRp40 genes were fused with HA tag and introduced into Flp-In-293 cells. MG132 (474790; purchased from CALBIOCHEM) was added to the cells at a final concentration of 10 μM. The cells were lysed and heat-denatured. The resulting protein sample was separated by SDS-PAGE, followed by Western analysis using a rabbit anti-HA antibody as the primary antibody and a donkey anti-rabbit IgG antibody as the secondary antibody.
Using Genejuice, 1 μg each of the plasmids for the SRp75, SRp55, and SRp40 genes fused with HA tag (HA-SRp75, HA-SRp55, and HA-SRp40; gifts from Dr. Woan-Yuh TARN), were introduced into Flp-In-293 cells derived from human fetal kidney. After 36 hours, MG132 (474790; purchased from Calbiochem), a ubiquitin proteasome inhibitor, was added at a final concentration of 10 μM. After ten hours, the cells were lysed with SDS-PAGE sample buffer and heat-denatured. The resulting lysate was used as a protein sample. Using the same procedures as described above, the sample was fractionated by SDS-PAGE, and analyzed by Western blotting using a rabbit anti-HA antibody (H1803; purchased from Santa Cruz) as a primary antibody and a donkey anti-rabbit IgG antibody (NA9340; purchased from Amersham) as a secondary antibody.

The test system of a further series is HIV. The experiment in a line: HIV infection experiment in MT-4 cells, HIVp24 by Lumipulse ELISA. The conditions noted are these: MT-4 cells, 5, 10, or 20 μM, supernatant after 48 hours.
The next series has as its system SRPK1 or SRPK2. As to the kind of experiment: Inhibition of SRPK1 or SRPK2 phosphorylation activity by SRPIN-1 analogs (FIG. 5A). In kind it is biochemical. The conditions noted are these: 10 μM in DMSO, 30° C., 20 minutes. The procedure: FIG. 5A: Evaluation of the SRPK-inhibiting activities of SRPIN-1 and analogs thereof.
The same procedure as described in Example 4B was used to determine whether SRPIN-1 analogs had the activity of inhibiting the phosphorylation activity of SRPK1 and SRPK2. Each SRPIN-1 analog (10 μM; in DMSO) was incubated with 1 μg of purified recombinant SRPK1 or SRPK2 protein, which was expressed in E. coli, in a reaction buffer (400 μM HEPES (pH 7.5), 100 μM MgCl2, 200 μM ATP, […] [γ-^32P] ATP, and 1 mg/ml RS peptide (SEQ ID NO: 5)) in a 30° C. water bath for 20 minutes.
After RS peptide was incubated with SRPK1 or SRPK2 for 20 minutes, the reaction solution was dropped onto P81 phosphocellulose membrane (P81; Whatman) and the membrane was washed three times for ten minutes with 5% phosphoric acid solution. After washing, ^32P radioactivity on the P81 membrane was determined using a liquid scintillation counter.

The structures appear in SMILES notation. Peptide text beside a SMILES is read from it. * marks the point of attachment. Cbz = O=C(OCc1ccccc1)*

With `O=C(Nc1ccccc1N1CCCCC1)c1ccncc1` [Compound No. 349, N-[2-(1-piperidinyl)phenyl]isonicotinamide], the “SARS virus propagation (plaque assay)” value in the series on SARS virus (FFM-1) was “significantly suppressed SARS virus propagation”. Also, the “morphological changes and cell death caused by cytomegalovirus infection” value with Cytomegalovirus was “suppressed the abnormal morphological changes and cell death caused by cytomegalovirus infection”. For `CN(C)N=O` [DMN, dimethylnitrosamine, reference compound], the “frequency of occurrence of cells with chromosomal abnormalities” value in series [1] worked out at 52.0%. For the same compound, the “frequency of occurrence of cells with chromosomal abnormalities (number of cells)” value in series [1] (50 metaphasic cells) is 26 cells.

Take `CC(C)C[C@@H](C=O)NC(=O)[C@H](CC(C)C)NC(=O)[C@H](CC(C)C)NC(=O)OCc1ccccc1` [MG132] (Cbz-Leu-Leu-Leu-aldehyde): in the series with SRp75, SRp55, and SRp40, the “degradation of SR proteins (anti-HA signal)” value is “inhibited degradation of SR75, SR55, and SR40 proteins”. For `O=C(Nc1cc(Cl)ccc1N1CCCCC1)c1ccncc1` [compound 341, N-[5-chloro-2-(1-piperidinyl)phenyl]isonicotinamide], the “effect in suppressing HIV replication (HIVp24)” value (“effect … (HIVp24)” for short) in the series with HIV was “strong effects in suppressing HIV propagation”. Take `Cc1ccc(N2CCCCC2)c(NC(=O)c2ccncc2)c1` [compound 342, N-[5-methyl-2-(1-piperidinyl)phenyl]isonicotinamide]: the “effect … (HIVp24)” value with HIV is “strong effects in suppressing HIV propagation”. Still for that read-out and setting: the same measure for `O=C(Nc1cc(C(F)(F)F)ccc1N1CCCCC1)c1cccnc1` [compound 343, N-[2-(1-piperidinyl)-5-(trifluoromethyl)phenyl]nicotinamide]: “strong effects in suppressing HIV propagation”; for `O=C(Nc1cc(C(F)(F)F)ccc1N1CCCCC1)c1ccc([N+](=O)[O-])cc1` [compound 345, N-[2-(1-piperidinyl)-5-(trifluoromethyl)phenyl]-4-nitrobenzamide]: “strong effects in suppressing HIV propagation”. Same read-out and setting: the same measure for `CCN(CC)c1ccc(C(F)(F)F)cc1NC(=O)c1ccncc1` [compound 347, N-[2-diethylamino-5-(trifluoromethyl)phenyl]isonicotinamide]: “strong effects in suppressing HIV propagation”. Regarding `O=C(Nc1cc(F)ccc1N1CCCCC1)c1ccncc1` [compound 348, N-[5-fluoro-2-(1-piperidinyl)phenyl]isonicotinamide], the “effect … (HIVp24)” value with HIV is “strong effects in suppressing HIV propagation”. On the same count and under the same terms, the same measure for `O=C(Nc1cccc(C(F)(F)F)c1)c1ccncc1` [compound 608, N-[3-(trifluoromethyl)phenyl]isonicotinamide]: “strong effects in suppressing HIV propagation”. Turning to `O=C(Nc1cc(C(F)(F)F)ccc1Br)c1ccncc1` [compound 612, N-[2-bromo-5-(trifluoromethyl)phenyl]isonicotinamide], in the series on SRPK1 or SRPK2, the “inhibitory effect on the phosphorylation activity of SRPK1 and/or SRPK2” value (“inhibitory effect” below) is on record as “strong inhibitory effect”. Turning to `C[C@H]1CCCCN1c1ccc(C(F)(F)F)cc1NC(=O)c1ccncc1` [compound 613, (S)—N-[2-(2-methyl-1-piperidinyl)-5-(trifluoromethyl)phenyl]isonicotinamide], the “inhibitory effect” value with SRPK1 or SRPK2 is recorded as “strong inhibitory effect”. The “effect … (HIVp24)” value with HIV is on record as “strong effects in suppressing HIV propagation”. Consider `COc1ccc(C(=O)Nc2cc(C(F)(F)F)ccc2N2CCCCC2)cc1` [compound 615, N-[2-(1-piperidinyl)-5-(trifluoromethyl)phenyl]-4-methoxybenzamide], for which the “inhibitory effect” value in the series with SRPK1 or SRPK2 is “strong inhibitory effect”. Also, the “effect … (HIVp24)” value in the series on HIV is given as “strong effects in suppressing HIV propagation”. `FC(F)(F)c1ccc(N2CCCCC2)c(NC(=S)c2ccncc2)c1` [compound 616, N-[2-(1-piperidinyl)-5-(trifluoromethyl)phenyl]isonicotinthioamide]: the “effect … (HIVp24)” value in the series on HIV is recorded as “strong effects in suppressing HIV propagation”. With `O=C(Nc1cc(C(F)(F)F)ccc1N1CCCCCC1)c1ccncc1` [compound 618, N-[2-(1-hexahydro-1H-azepinyl)-5-(trifluoromethyl)phenyl]isonicotinamide], in the series on SRPK1 or SRPK2, the “inhibitory effect” value was “strong inhibitory effect”. In the series with HIV, the “effect … (HIVp24)” value is “strong effects in suppressing HIV propagation”. Take `O=C(Nc1cc(C(F)(F)F)ccc1N1CCc2ccccc21)c1ccncc1` [compound 619, N-[2-(1-indolinyl)-5-(trifluoromethyl)phenyl]isonicotinamide]: in the series on SRPK1 or SRPK2, the “inhibitory effect” value was “strong inhibitory effect”. Also, in the series on HIV, the “effect … (HIVp24)” value was “strong effects in suppressing HIV propagation”. As for `O=C(Nc1cc(C(F)(F)F)ccc1N1Cc2ccccc2C1)c1ccncc1` [compound 620, N-[2-(2-isoindolinyl)-5-(trifluoromethyl)phenyl]isonicotinamide], in the series with HIV, the “effect … (HIVp24)” value is “strong effects in suppressing HIV propagation”. As to `O=C(Nc1cc(C(F)(F)F)ccc1N1CCc2ccccc2C1)c1ccncc1` [compound 621, N-[2-(1,2,3,4-tetrahydroisoquinolin-2-yl)-5-(trifluoromethyl)phenyl]isonicotinamide], in the series with SRPK1 or SRPK2, the “inhibitory effect” value is “strong inhibitory effect”. Take `Cc1ccc(S(=O)(=O)Nc2cc(C(F)(F)F)ccc2N2CCCCC2)cc1` [compound 622, N-[2-(1-piperidinyl)-5-(trifluoromethyl)phenyl]-p-toluenesulfonamide]: the “effect … (HIVp24)” value with HIV is on record as “strong effects in suppressing HIV propagation”. `O=C(NC(=S)Nc1ccc(I)cc1Cl)c1cccnc1` [compound 623]: the “effect … (HIVp24)” value in the series with HIV is listed as “strong effects in suppressing HIV propagation”. On to `O=C(NC(=S)Nc1cc(C(F)(F)F)ccc1N1CCCCC1)c1cccnc1` [compound 624, 1-nicotinoyl-3-[2-(1-piperidinyl)-5-(trifluoromethyl)phenyl]thiourea], for which the “inhibitory effect” value with SRPK1 or SRPK2 is “strong inhibitory effect”. In addition, the “effect … (HIVp24)” value in the series with HIV is on record as “strong effects in suppressing HIV propagation”. Taken in the same sequence, the figures for `O=C(NC(=S)Nc1cccc(C(F)(F)F)c1)c1cccnc1` [compound 625] were “strong inhibitory effect” and “strong effects in suppressing HIV propagation”. Regarding `O=C(NC(=S)Nc1ccccc1)c1cccnc1` [compound 626], the “effect … (HIVp24)” value in the series on HIV is reported as “strong effects in suppressing HIV propagation”.
